# Assay results reported in PubChem BioAssay (NCI).
# Values joined by “and” are separate entries in the source; they are usually repeats but may differ in a detail not shown here. Equal values may be shown once.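 Following 48 hours of exposure in 96-well plates, responses at five concentrations were used to interpolate endpoints linearly. GI50 marks 50% less growth. The concentration for full growth arrest is given as TGI.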 Where a SMILES comes first, the peptide text is derived from it. The star is where a group is joined. OSu = O=C1CCC(=O)N1O*
# Legend:
# Assay in all cases: NCI-60 cell line screen, 48 h
# [1] = system: COLO 205 colon
# [2] = system: HOP-92 NSCLC
# [3] = system: KM12 colon
# [4] = system: LOX IMVI melanoma
# [5] = system: NCI-H226 lung
# [6] = system: NCI-H522 lung
# [7] = system: SK-OV-3 ovarian
# [8] = system: UO-31 renal
# [9] = system: A549 NSCLC
# [10] = system: RXF 393 renal
SMILES,TGI [1] [µM],TGI [2] [µM],TGI [3] [µM],TGI [4] [µM],TGI [5],TGI [6],TGI [7] [µM],TGI [8] [µM],TGI [9] [µM],TGI [10] [µM],GI50 [2],GI50 [5],GI50 [10]
COc1cc(C2c3cc4c(cc3[C@@H](N(C)c3ccc(N(C)C)cc3)C3COC(=O)C23)OCO4)cc(OC)c1O (stereo partly drawn),4.23,36.8,21.5,16,0.625 µM,0.553 µM,43,19.4,–,–,–,–,–
O=C(c1ccco1)N(C(=S)N1CCN(c2ccccn2)CC1)c1ccccc1,> 100,> 100,> 100,> 100,> 100 µM,> 100 µM,> 100,> 100,> 100,> 100,–,–,–
C=CCn1c(=N)/c(=C(\N)O)s/c1=C1/SC(=S)N(c2ccc(C)cc2)C1=O,> 100,> 100,> 100,–,> 100 µM,> 100 µM,> 100,> 100,> 100,–,–,–,–
C/C(O[Si](C(C)C)(C(C)C)C(C)C)=C(\C)C(=O)N(C)c1ccccc1Cl,> 100,> 100,> 100,> 100,> 100 µM,> 100 µM,–,> 100,> 100,> 100,–,–,–
O=[N+]([O-])C(C(Cl)=C(Cl)Cl)=C(n1cncn1)n1cncn1,26.7,–,> 100,44.9,> 100 µM,28.7 µM,> 100,34.9,> 100,43.4,–,–,–
O=C1/C(=C/c2ccccc2)CCCc2ccccc21,33.3,32.9,35.2,34.9,36.6 µM,51.6 µM,> 100,31.9,67.1,–,–,–,–
C=C(C)C(=O)OC1C[C@H](COC(C)=O)C2CC=C(CO)C2C2OC(=O)C(=C)[C@H]12 (stereo partly drawn),30,–,> 100,> 100,> 100 µM,33.8 µM,> 100,> 100,> 100,–,–,–,–
COCOc1cc(OC)ccc1C/C(=N/O)C(=O)OC,> 100,–,> 100,> 100,> 100 µM,> 100 µM,> 100,> 100,> 100,> 100,–,–,–
COC(=O)CC(C(C(C)=O)C(=O)OCc1ccccc1)N1C(=O)OC(c2ccccc2)C1c1ccccc1 (stereo not drawn),> 100,> 100,> 100,> 100,80.7 µM and > 100 µM,65.8 µM and > 100 µM,> 100,–,> 100,> 100,84.5 µM and 39.8 µM,12.2 µM and 77.5 µM,29.1 µM and 84.9 µM
O=C1C(Cl)=C(NCCF)C(=O)c2ncccc21,–,–,3.38,2.26,3.99 µM,–,3.74,2.6,4.07,3.24,–,–,–
C/C(O)=C(\C=NC(=S)c1ccncc1)C(=O)Nc1ccccc1C,> 100,> 100,> 100,> 100,> 100 µM,–,> 100,> 100,> 100,> 100,–,–,–
COC(=O)C1(O)C(c2ccccc2)NC2(C)CCCC21 (stereo not drawn),> 100,–,> 100,> 100,> 100 µM,> 100 µM,> 100,> 100,> 100,> 100,–,–,–
Cc1cc2nnc(C(N)=O)c(N)c2cc1C,> 100,> 100,> 100,> 100,> 100 µM,> 100 µM,> 100,> 100,> 100,–,–,–,–
O=C(O)c1ccc(Nc2nc3nn(Cc4ccccc4)cc3c(=O)s2)cc1,> 100,> 100,> 100,> 100,–,> 100 µM,> 100,> 100,> 100,> 100,–,–,–
CC(=O)c1c(O)n(-c2ccc(C)cc2)c(=O)c2c(N)n[nH]c12,> 100,–,> 100,> 100,> 100 µM,> 100 µM,> 100,> 100,> 100,> 100,–,–,–
CN(C)N=Nc1ccc2[nH]c(=O)[nH]c2c1,> 100,–,> 100,> 100,> 100 µM,> 100 µM,> 100,> 100,> 100,> 100,–,–,–
CC[n+]1c(/C=C/c2ccc(N(CCCl)CCCl)cc2)ccc2cc(I)ccc21,–,2.13,–,2.85,5.63 µM,1.64 µM,6.42,14.2,13.8,3.77,–,–,–
OC12c3ccccc3C1CCCCCC21OCCCO1 (stereo not drawn),> 100,–,> 100,> 100,> 100 µM,> 100 µM,> 100,> 100,> 100,> 100,–,–,–
C=CCn1c(-c2ccc(Cl)cc2)csc1=Nc1ccccc1OC,> 100,> 100,> 100,> 100,> 100 µM,–,> 100,> 100,> 100,> 100,–,–,–
Cc1cc(C)nc(NS(=O)(=O)c2ccc(NC(=O)c3cc([N+](=O)[O-])cc([N+](=O)[O-])c3)cc2)n1,45.7,> 100,> 100,> 100,> 100 µM,–,> 100,> 100,> 100,> 100,–,–,–
CNC(=S)/C(C#N)=C(\N)N1CCCC1,> 100,–,> 100,–,> 100 µM,> 100 µM,> 100,> 100,> 100,> 100,–,–,–
C=CCCC(=O)C(=[N+]=[N-])C(=O)CCC(=O)c1ccccc1,–,> 10,–,> 10,> 10 µM,–,> 10,> 10,> 10,> 10,–,–,–
CC1(C)OC2OC(COC(=O)c3ccc(C#N)cc3)C3OC(C)(C)OC3C2O1 (stereo not drawn),> 75,–,> 75,> 75,> 75 µM,> 75 µM,> 75,> 75,> 75,> 75,–,–,–

SMILES,TGI [1] [µM],TGI [2] [µM],TGI [3] [µM],TGI [4] [µM],TGI [5],TGI [6],TGI [7] [µM],TGI [8] [µM],TGI [9] [µM],TGI [10] [µM],GI50 [2],GI50 [5],GI50 [10]
CN1NC(c2ccccc2)=C(C#N)C(=O)CC1c1ccc(Br)cc1 (stereo not drawn),–,> 100,> 100,> 100,4.24 µM,53.7 µM,> 100,–,> 100,> 100,–,–,–
COc1ccc(/C(Cl)=C(\C=O)c2ccc(Cl)cc2)cc1OC,13.2,–,–,14.5,36.6 µM,6.27 µM,> 100,28,> 100,20.7,–,–,–
Cc1cc(N(CCC#N)CCC#N)ccc1/C(N=Nc1ccc([N+](=O)[O-])cc1)=N\NC(=O)c1ccccc1,> 100,–,> 100,–,> 100 µM,44.7 µM,> 100,> 100,> 100,> 100,–,–,–
Cc1ccc(C2C(Cl)C(=O)N2NC(=O)c2ccc(N)cc2)cc1 (stereo not drawn),44.6,28.5,> 100,24.4,65.4 µM,25.6 µM,37.4,86.5,71.7,–,–,–,–
CC(=O)n1nc(-c2ccc3ccccc3c2)nc1C,> 100,–,> 100,> 100,–,> 100 µM,> 100,> 100,> 100,> 100,–,–,–
COc1ccc2c3c1OC1C(OC)(OC)CC4(C=C2)CN(C)CCC314 (stereo not drawn),> 100,–,> 100,> 100,> 100 µM,–,> 100,> 100,> 100,> 100,–,–,–
NC(N)=N/N=C/c1c(-c2cc([N+](=O)[O-])c(Cl)cc2Cl)nc2n1CCS2,–,61.6,> 100,> 100,92.5 µM,51.5 µM,–,38.2,> 100,> 100,–,–,–
CCN(CC)CCN1C(=O)C(=O)N(c2cccc3ccccc23)C1=O,> 10,–,> 10,> 10,> 10 µM,> 10 µM,> 10,> 10,> 10,> 10,–,–,–
Cc1cc(NS(=O)(=O)c2ccc(Nc3c4ccccc4nc4c(C(=O)NCCO)cccc34)cc2)no1,> 100,> 100,62.7,> 100,–,30.2 µM,> 100,99.7,> 100,–,–,–,–
Cc1ccc(SCC(OCn2cnc3c(Cl)nc(N)nc32)[C@H](C)F)cc1 (stereo partly drawn),> 100,> 100,> 100,> 100,> 100 µM,29.4 µM,> 100,> 100,> 100,–,–,–,–
COc1ccc(CCN2C(=O)CC34C=CC(CC3C2=O)O4)cc1OC (stereo not drawn),> 100,> 100,> 100,> 100,–,–,> 100,> 100,> 100,–,–,–,–
NCCCCC(NC(=O)C(N)Cc1ccc(O)cc1)C(=O)NC(Cc1ccc(O)cc1)C(=O)NC(CCCCN)C(=O)ON1C(=O)CCC1=O (stereo not drawn) (H-YKYK-OSu; configuration not given here),> 100,> 100,> 100,–,> 100 µM,–,–,> 100,> 100,> 100,–,–,–
OC12CCC3(O)c4ccccc4C3C1c1ccccc12 (stereo not drawn),> 100,–,> 100,> 100,> 100 µM,> 100 µM,> 100,> 100,> 100,> 100,–,–,–
CC12CCC(CC1(Cl)Cl)C2 (stereo not drawn),> 100,> 100,> 100,> 100,> 100 µM,> 100 µM,> 100,> 100,> 100,–,–,–,–
CCOC(=O)c1nc2cc(C(F)(F)F)ccc2nc1Oc1ccc(F)cc1,> 100,> 100,> 100,> 100,> 100 µM,> 100 µM,–,> 100,> 100,> 100,–,–,–
CCn1c(CSc2nc(-c3ccccc3)c(-c3ccccc3)[nH]2)n[nH]c1=S,> 100,> 100,> 100,> 100,> 100 µM,> 100 µM,> 100,> 100,> 100,–,–,–,–
Cc1ccc(/S(Cc2ccccc2)=N\S(=O)(=O)c2ccc(C)cc2)cc1 (stereo not drawn),> 100,> 100,> 100,–,> 100 µM,–,–,> 100,> 100,> 100,–,–,–
COc1cc(OC)c(OC)cc1/C=C/c1cc[n+](C)c2ccccc12,19,76.2,75,–,–,–,> 100,> 100,> 100,> 100,–,–,–
COC(=O)CNC(=O)CCC(C)[C@H]1CCC2C3C(C[C@H](OC(C)=O)[C@@]21C)[C@@]1(C)CCC2(C[C@H]1C[C@H]3OC(C)=O)OOC1(CCCCC1)OO2 (stereo partly drawn),3.89,2.72,3.64,–,4.65 µM,3.14 µM,25,3.3,3.36,4.23,–,–,–
C1=NCCOCCN=Cc2ccc(cc2)OCc2cccc(n2)COc2ccc1cc2,> 100,> 100,> 100,–,> 100 µM,> 100 µM,> 100,> 100,> 100,> 100,–,–,–
CC(C)=C[C@@H]1O[C@H](O)[C@@H]([C@H]2CC[C@@]3(C)[C@@H]4CC[C@H]5C(C)(C)C(=O)CC[C@@]56C[C@@]46CC[C@]23C)[C@@H]1O,43.3,32,34.9,–,24.6 µM,30.3 µM,34.6,28.6,28.7,27.8,–,–,–
CCCCCCCCCC(=O)NC(Cc1ccc(O)cc1)C(=O)NCCCNCCCCNCCCNC(=O)[C@@H](N)CCCN=C(N)N (stereo partly drawn),34.5,–,61.5,> 100,> 100 µM,69.7 µM,> 100,> 100,> 100,–,–,–,–
NCCNC(=O)CN(CC(=O)O)C1CCCCC1N(CC(=O)O)CC(=O)O (stereo not drawn),> 100,> 100,> 100,> 100,> 100 µM,> 100 µM,> 100,> 100,> 100,–,–,–,–
